For 12 compounds, IC50 and logD results are on record in ChEMBL document CHEMBL3877278, “Antiproliferative activity of amino substituted benzo[b]thieno[2,3-b]pyrido[1,2-a]benzimidazoles explored by 2D and 3D cell culture system” (Eur J Med Chem, 2017).

Molecules are shown by their SMILES.

Data set [1] is described as follows: Antiproliferative activity against 2D culture of human MDA-MB-231 cells after 72 hrs MTS assay. In kind it is functional, cell-based. To be noted: MDA-MB-231, 72 h. For orientation: Tetrazolium dyes change colour on reduction, which living cells bring about.
The nature of data set [2]: Antiproliferative activity against 2D culture of human SK-BR-3 cells after 72 hrs MTS assay. The format is functional, cell-based. The note with it: SK-BR-3, 72 h.
Data set [3] in a line: Antiproliferative activity against 2D culture of human T47D cells after 72 hrs MTS assay. The format is functional, cell-based.
Data set [4] in a line: Antiproliferative activity against 3D culture of human MDA-MB-231 cells after 72 hrs MTS assay. In kind it is functional, cell-based. To be noted: MDA-MB-231, 72 h.
Data set [5] in a line: Antiproliferative activity against 3D culture of human SK-BR-3 cells after 72 hrs MTS assay. In kind it is functional, cell-based. To be noted: SK-BR-3, 72 h.
Data set [6] can be described thus: Antiproliferative activity against 3D culture of human T47D cells after 72 hrs MTS assay. The format is functional, cell-based.
Data set [7] can be described thus: Lipophilicity, log D of the compound at pH 2.7 by HPLC method. The format is physicochemical. To be noted: buffer.
Data set [8] in a line: Lipophilicity, log D of the compound at pH 7.4 by HPLC method. In kind it is physicochemical. The note with it: buffer, read-out: logD.

Regarding `N#Cc1c(N2CCCCC2)c2ccccc2n2c1nc1ccccc12`, the IC50 (as a rule, the concentration needed to halve the response being measured) is more than 30 µM in data set [1]; more than 30 µM in data set [2]; more than 30 µM in data set [3]; 3 µM in data set [4]; more than 30 µM in data set [5]; more than 30 µM in data set [6]. In addition, the logD (in general, lipophilicity at a set pH, counting ionised and neutral species) in data set [7] was found to be 6.36; in data set [8], 6.91.
In the case of `CC(C)CNc1ccc2cc(C#N)c3nc4ccccc4n3c2c1`, the IC50 in data set [1] was 5 µM; in data set [2], 1 µM; in data set [3], 3 µM; in data set [4], more than 30 µM; in data set [5] it was more than 30 µM; in data set [6] it was 19 µM. The figures for the logD in data set [7] and in data set [8] were 6.45 and 6.58, respectively.
`CC(C)CNc1ccc2c(c1)sc1cc(C#N)c3nc4ccccc4n3c12`: the IC50 in data set [1] was 3 µM; in data set [2], 5 µM; in data set [3], 2 µM; in data set [4], more than 30 µM; in data set [5], more than 30 µM; in data set [6], 12 µM. In addition, the logD in data set [7] was determined as 7.76; in data set [8], 7.77.
As for `N#Cc1c(N2CCNCC2)c2ccc(N3CCNCC3)cc2n2c1nc1ccccc12`, the IC50 in data set [1] was 2 µM; in data set [2], 7 µM; in data set [3] it was 5 µM; in data set [4], 9 µM; in data set [5], more than 30 µM; in data set [6] it was more than 30 µM. The logD in data set [7] was -0.98; in data set [8], 0.87.
Consider `N#Cc1c(Cl)c2sc3cc(F)ccc3c2n2c1nc1ccccc12`, for which the IC50 in data set [1], in data set [2], in data set [3], in data set [4], in data set [5] and in data set [6] was more than 30 µM throughout. Besides, the logD in data set [7] turned out to be 4.04; in data set [8], 3.2.
Consider `N#Cc1c(=O)c2sc3cc(F)ccc3c2n2c1[nH]c1ccccc12`, for which the IC50 in data set [1], in data set [2], in data set [3], in data set [4], in data set [5] and in data set [6] was more than 30 µM in each case. Moreover, the logD in data set [7] amounted to 4.04; in data set [8], 3.2.
In the case of `N#Cc1cc2ccc(N3CCNCC3)cc2n2c1nc1ccccc12`, the IC50 in data set [1] is 3 µM; in data set [2], 2 µM; in data set [3] it was 15 µM; in data set [4], 5 µM; in data set [5] it was more than 30 µM; in data set [6], more than 30 µM. Besides, the log distribution coefficient (logD) in data set [7] was 0.27; in data set [8] it was 2.01.
`N#Cc1c(=O)c2sc3ccccc3c2n2c1[nH]c1ccccc12`: the IC50 in data set [1], in data set [2], in data set [3], in data set [4], in data set [5] and in data set [6] was more than 30 µM throughout. The logD in data set [7] is 3.76; in data set [8] it was 2.95.
Consider `N#Cc1c(Cl)c2sc3ccccc3c2n2c1nc1ccccc12`, for which the IC50 in data set [1] is more than 30 µM; in data set [2], more than 30 µM; in data set [3], 1 µM; in data set [4] it was more than 30 µM; in data set [5], more than 30 µM; in data set [6], more than 30 µM. The logD was determined as 7.38 in data set [7] and 7.32 in data set [8].
For `CN(C)CCCNc1ccc2c(c1)sc1cc(C#N)c3nc4ccccc4n3c12`, the IC50 was 2 µM in data set [1]; 4 µM in data set [2]; 5 µM in data set [3]; 5 µM in data set [4]; 27 µM in data set [5]; more than 30 µM in data set [6]. Moreover, the log distribution coefficient (logD) in data set [7] turned out to be 1.03; in data set [8], 2.91.
`N#CC1C(=O)c2ccccc2-n2c1nc1ccccc12` (stereo unspecified): the IC50 in data set [1], in data set [2], in data set [3], in data set [4], in data set [5] and in data set [6] was more than 30 µM throughout. Also, the logD was determined as 2.6 in data set [7] and 2.09 in data set [8].
Turning to `CN(C)CCCNc1c(C#N)c2nc3ccccc3n2c2ccccc12`, the IC50 in data set [1] was 6 µM; in data set [2], 4 µM; in data set [3], 29 µM; in data set [4], 7 µM; in data set [5], more than 30 µM; in data set [6], more than 30 µM. Further, the values for the logD in data set [7] and in data set [8] were -0.05 and 2.26, respectively.
